Data set [1] relates to Thp1 human monocytic cells. Nature of the data set: Thp1 Monocyte ATP Production Assay. Particulars: for IC50: Thp1 cells, 24 hour incubation, ATPLite, 9-point range 10 μM to 10 nM, mean of 2 independent experiments; for potency in the Thp1 monocytic ATP assay (in words): compared to the reference compounds. In kind it is cell-based. Here is the method:
In vitro potency of test compounds was determined by incubation with Thp1 human monocytic cells and subsequent determination of Adenosine TriPhosphate (ATP) levels using firefly luciferase.
ATP is present in all metabolically active cells. When cells lose integrity, their ability to synthesise ATP is rapidly lost. […] See, e.g., Kang et al., 2015; Jiang et al., 2013. Levels of ATP can be monitored using a system based on firefly (Photinus pyralis) luciferase (see, e.g., Auld et al., 2009) using commercially available kits. A system known as
ATPlite™ was using to measure effects of the test compounds on cellular viability in vitro. This one-step assay system is an adenosine triphosphate (ATP) monitoring system based on the production of light caused by the reaction of ATP from the cells with added luciferase and D-luciferin, as illustrated in the reaction scheme below:
The emitted light is proportional to the ATP concentration.
Thp1 cells were plated at 112500 cells per well in 125 μL RPMI-1640 (no glucose) with 1% FBS in 96-well plates. Test compounds were prepared as 100 mM solutions in DMSO. These stock solutions were diluted in DMSO and then diluted 1000× in culture medium (RPMI) before being added directly to the wells so as to give the desired final compound concentration. After a 24 hour incubation at 37° C./5% CO2, ATPLite™ (Perkin Elmer) was added to each well (1:10 v/v, 10 μL). The plate was then incubated at room temperature for 5 minutes and the emitted light was quantified on Viewlux with a measurement time of 0.3 seconds and binning 4×4.
The average results for each test compound were expressed as a percent (%) of the average control value reflecting cell viability. The average values across the concentrations tested were then plotted and the IC50 for was calculated by fitting the data to a 4-parameter IC50 equation using software from Graf it (Erithacus Software). Each experiment was repeated twice and the data are presented as the mean IC50 from both experiments.

Data set [2] in a line: Rat hepatocyte stability. In kind it is in vitro ADME. Particulars: rat, pooled rat hepatocytes, 60 minute incubation; for hepatocyte CLint at 1 μM: read-out: Rat Clint (μL/min/million cells); for half-life at 1 μM: read-out: Rat t1/2. How it is done: (§1) Metabolic stability of test compounds was measured by determination of the rate of disappearance of the compound when incubated in the presence of rat or human hepatocytes, a primary source of the most important enzymes (cytochrome P450s) involved in drug metabolism. Study of drug stability in the presence of primary hepatocytes is accepted as a valuable model permitting rapid prediction of in vivo drug stability.
(§2) Rat or human hepatocytes were obtained from a commercial source and viability was assessed using a trypan blue solution prior to use. Test compounds (final concentration 1 μM, 0.1% DMSO, 0.9% acetonitrile) or a marker (diclofenac or diltiazem, final assay concentration 1 μM, 0.1% DMSO, 0.9% acetonitrile) were incubated with pooled hepatocytes for a 60 minute period and samples removed at up to 6 time points and analysed by LC-MS/MS for the presence/amount of test compounds.
(§3) Each compound was incubated for 0, 5, 15, 30, 45, or 60 minutes. The reactions were stopped by the addition of methanol containing an internal standard (1 μM Tolbutamide) at the appropriate time points, mixed and placed at −20° C. for ≥1 hour to quench and allow protein to precipitate. All samples were centrifuged (2500×g, 20 minutes, 4° C.). The aliquots were analysed using LC-MS/MS. Reactions were performed in duplicate at 37° C.
(§4) Data were processed, and the results plotted as In(concentration) vs. time. The elimination rate constant (slope of the regression line, k) was calculated using the following formula, where C(t) is the concentration at time t and C(0) is the starting concentration:
(§5) The half-life (t1/2) was calculated using the following formula: […]
(§6) The intrinsic clearance (CIint) was calculated using the following formula, where [cell] is the hepatocyte concentration in the assay: […]

Data set [3] in a line: Human hepatocyte stability. In kind it is in vitro ADME. Particulars: human, pooled human hepatocytes, human hepatocytes, 1 μM, 60 minute incubation; for hepatocyte CLint at 1 μM: read-out: Human Clint (uL/min/million cells); for half-life at 1 μM: read-out: Human t1/2. How it is done:
as §1, §2, §3, §4, §5, §6

Data set [4] deals with CYP2C9 (Homo sapiens (Human), UniProt P11712). Nature of the data set: Human Cytochrome P450 Inhibition Assay (Bactosomes). It is filed as in vitro ADME. To be noted: recombinant Bactosomes, 10 minutes, 37° C.
CYP2C9, sequence (P11712 whole entry): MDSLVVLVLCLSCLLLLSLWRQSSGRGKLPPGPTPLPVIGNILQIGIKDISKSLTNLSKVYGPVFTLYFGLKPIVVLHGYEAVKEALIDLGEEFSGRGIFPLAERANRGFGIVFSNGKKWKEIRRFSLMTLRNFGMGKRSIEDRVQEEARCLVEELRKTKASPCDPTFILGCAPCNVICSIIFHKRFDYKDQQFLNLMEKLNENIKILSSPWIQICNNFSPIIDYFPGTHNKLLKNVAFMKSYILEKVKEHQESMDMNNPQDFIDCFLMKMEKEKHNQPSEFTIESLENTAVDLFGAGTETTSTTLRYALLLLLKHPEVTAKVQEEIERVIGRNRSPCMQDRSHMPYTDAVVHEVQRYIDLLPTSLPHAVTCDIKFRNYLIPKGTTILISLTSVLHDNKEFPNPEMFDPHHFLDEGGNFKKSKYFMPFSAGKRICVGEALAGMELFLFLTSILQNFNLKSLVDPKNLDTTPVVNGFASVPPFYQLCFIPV
Data set [5] has as its target CYP2C19 (Homo sapiens (Human), UniProt P33261). The data set is described as above. In kind it is in vitro ADME. Particulars: recombinant Bactosomes, 10 minutes, 37° C.
For data set [6], the target named is CYP2D6 (Homo sapiens (Human), UniProt P10635). The description is as above. In kind it is in vitro ADME. Particulars: recombinant Bactosomes, 10 minutes, 37° C.
CYP2D6, sequence (P10635 whole entry): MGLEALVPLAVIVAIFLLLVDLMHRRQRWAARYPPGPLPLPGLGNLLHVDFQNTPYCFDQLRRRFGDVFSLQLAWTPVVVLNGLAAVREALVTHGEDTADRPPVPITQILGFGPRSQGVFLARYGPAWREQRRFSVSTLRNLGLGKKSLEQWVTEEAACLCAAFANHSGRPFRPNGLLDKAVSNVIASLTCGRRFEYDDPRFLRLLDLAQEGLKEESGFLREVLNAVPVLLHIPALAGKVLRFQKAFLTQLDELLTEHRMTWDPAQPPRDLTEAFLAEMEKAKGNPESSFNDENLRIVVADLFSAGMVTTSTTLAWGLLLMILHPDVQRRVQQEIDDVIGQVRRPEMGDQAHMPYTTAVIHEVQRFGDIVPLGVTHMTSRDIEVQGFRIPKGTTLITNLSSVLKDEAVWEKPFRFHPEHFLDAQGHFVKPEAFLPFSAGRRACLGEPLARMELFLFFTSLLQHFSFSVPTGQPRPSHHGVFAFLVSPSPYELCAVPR
Data set [7] addresses CYP1A2 (Homo sapiens (Human), UniProt P05177). The data set is described as above.
Data set [8] deals with CYP3A4 (Homo sapiens (Human), UniProt P08684). Described as above. To be noted: recombinant Bactosomes, 10 minutes, 37° C. In kind it is in vitro ADME.
CYP3A4, sequence (P08684 whole entry): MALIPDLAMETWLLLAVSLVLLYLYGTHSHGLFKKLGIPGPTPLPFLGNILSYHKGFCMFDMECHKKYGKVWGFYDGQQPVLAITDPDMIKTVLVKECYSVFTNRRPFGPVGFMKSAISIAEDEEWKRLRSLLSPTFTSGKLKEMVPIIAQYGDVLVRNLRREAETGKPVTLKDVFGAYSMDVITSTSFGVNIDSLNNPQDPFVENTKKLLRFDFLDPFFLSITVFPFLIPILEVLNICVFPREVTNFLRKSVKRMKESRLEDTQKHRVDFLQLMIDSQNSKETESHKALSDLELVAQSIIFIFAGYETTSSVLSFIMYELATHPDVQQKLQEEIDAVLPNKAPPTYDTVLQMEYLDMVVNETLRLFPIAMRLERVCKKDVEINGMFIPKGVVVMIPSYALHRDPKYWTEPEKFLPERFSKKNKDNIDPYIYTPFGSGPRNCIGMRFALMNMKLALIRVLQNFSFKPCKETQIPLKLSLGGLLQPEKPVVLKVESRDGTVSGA

This note sets out measurements from patent US11834414B2, “1-methyl-4-[(4-phenylphenyl)sulfonylmethyl]cyclohexyanol and 1-methyl-4-[[4-(2-pyridyl)phenyl]sulfonylmethyl]cyclohexanol compounds and their therapeutic use” (Modern Biosciences Limited, priority 2018, dated 2023).

CYP2C19, sequence (P33261 whole entry): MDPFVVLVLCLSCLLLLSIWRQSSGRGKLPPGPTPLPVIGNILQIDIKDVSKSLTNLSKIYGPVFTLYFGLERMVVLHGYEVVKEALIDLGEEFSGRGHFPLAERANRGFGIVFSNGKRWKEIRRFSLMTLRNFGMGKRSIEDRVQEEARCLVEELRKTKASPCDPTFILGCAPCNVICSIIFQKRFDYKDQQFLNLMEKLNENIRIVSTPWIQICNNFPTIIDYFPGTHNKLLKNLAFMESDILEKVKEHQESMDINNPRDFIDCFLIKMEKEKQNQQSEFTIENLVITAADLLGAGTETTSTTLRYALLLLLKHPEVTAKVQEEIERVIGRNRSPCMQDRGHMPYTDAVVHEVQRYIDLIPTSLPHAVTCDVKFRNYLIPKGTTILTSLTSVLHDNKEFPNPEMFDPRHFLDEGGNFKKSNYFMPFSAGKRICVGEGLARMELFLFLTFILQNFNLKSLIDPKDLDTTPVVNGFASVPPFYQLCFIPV
CYP1A2, sequence (P05177 whole entry): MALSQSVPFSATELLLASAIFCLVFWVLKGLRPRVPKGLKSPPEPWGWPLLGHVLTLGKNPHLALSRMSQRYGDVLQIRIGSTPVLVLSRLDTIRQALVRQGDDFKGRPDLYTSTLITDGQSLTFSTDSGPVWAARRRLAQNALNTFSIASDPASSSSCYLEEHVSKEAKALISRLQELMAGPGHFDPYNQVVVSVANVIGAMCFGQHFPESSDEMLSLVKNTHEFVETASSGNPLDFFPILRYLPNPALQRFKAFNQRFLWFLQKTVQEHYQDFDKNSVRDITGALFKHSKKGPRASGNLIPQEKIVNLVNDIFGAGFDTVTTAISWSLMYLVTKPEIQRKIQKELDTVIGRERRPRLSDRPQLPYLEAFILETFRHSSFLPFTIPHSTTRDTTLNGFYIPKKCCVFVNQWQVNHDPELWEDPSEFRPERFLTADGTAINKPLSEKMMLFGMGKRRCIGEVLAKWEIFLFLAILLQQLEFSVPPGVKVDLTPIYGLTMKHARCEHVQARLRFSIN

In data set [1] (Homo sapiens, THP-1, 24 h), `C[C@]1(O)CC[C@@H](CS(=O)(=O)c2ccc(-c3ccc(Cl)cc3C#N)cc2)CC1` [CHMSA-10-A, 4-chloro-4′-((cis-4-hydroxy-4-methylcyclohexyl)methanesulfonyl)-(1,1′-biphenyl)-2-carbonitrile] yielded an IC50 of 1.63 µM. The hepatocyte CLint at 1 μM in data set [2] came to 149 µL/min/1e6 cells; in data set [3], 30.8 µL/min/1e6 cells. The values for the half-life at 1 μM in data set [2] and in data set [3] were 0.178 h and 0.617 h, respectively.
Compound `C[C@]1(O)CC[C@H](CS(=O)(=O)c2ccc(-c3ccc(C#N)cc3Cl)cc2)CC1` [CHMSA-05-B, 2-Chloro-4′-(((trans-4-hydroxy-4-methylcyclohexyl)methyl)sulfonyl)-[1,1′-biphenyl]-4-carbonitrile] showed an IC50 in data set [1] (Homo sapiens, THP-1, 24 h) of 2.7 µM. In data set [3], the hepatocyte CLint at 1 μM amounted to 6.5 µL/min/1e6 cells and the half-life at 1 μM was 3.79 h.
With `C[C@]1(O)CC[C@H](CS(=O)(=O)c2ccc(-c3ccc(F)cc3F)cc2C(F)(F)F)CC1` [CHMSA-08-B, trans-4-(((2′,4′-Difluoro-3-(trifluoromethyl)-[1,1′-biphenyl]-4-yl)sulfonyl)methyl)-1-methylcyclohexan-1-ol], the IC50 in data set [1] (Homo sapiens, THP-1, 24 h) is 0.4 µM; in data set [4] it was greater than 25 µM; in data set [5], greater than 25 µM; in data set [6] it was greater than 10 µM; in data set [7], greater than 10 µM. For the same compound, the hepatocyte CLint at 1 μM in data set [3] came out at 9.8 µL/min/1e6 cells. The half-life at 1 μM in data set [3] came out at 2.3 h.
In data set [1] (Homo sapiens, THP-1, 24 h), `C[C@]1(O)CC[C@@H](CS(=O)(=O)c2ccc(-c3ccc(C#N)cc3)c(Cl)c2)CC1` [CHMSA-07-A, 2′-chloro-4′-(((cis-4-hydroxy-4-methylcyclohexyl)methyl)sulfonyl)-[1,1′-biphenyl]-4-carbonitrile] returned an IC50 of 1.3 µM.
Take `C[C@]1(O)CC[C@@H](CS(=O)(=O)c2ccc(-c3ccc(C#N)cc3Cl)cc2)CC1` [CHMSA-05-A, 2-chloro-4′-(((cis-4-hydroxy-4-methylcyclohexyl)methyl)sulfonyl)-[1,1′-biphenyl]-4-carbonitrile]: the IC50 in data set [1] (Homo sapiens, THP-1, 24 h) was 0.8 µM; in data set [4], 7 µM; in data set [5] it was 36.6 µM; in data set [6], greater than 50 µM; in data set [8] it was 26.3 µM; in data set [7], greater than 50 µM. Further, in data set [3], the hepatocyte CLint at 1 μM stood at 3.3 µL/min/1e6 cells. Further, in data set [3], the half-life at 1 μM was 6.61 h.
Consider `C[C@]1(O)CC[C@@H](CS(=O)(=O)c2ccc(-c3ncc(F)cc3F)cc2C(F)(F)F)CC1` [CHMSA-09-A, cis-4-(((4-(3,5-difluoropyridin-2-yl)-2-(trifluoromethyl)phenyl)sulfonyl)methyl)-1-methylcyclohexan-1-ol], for which the IC50 in data set [1] (Homo sapiens, THP-1, 24 h) was 0.3 µM; in data set [4], greater than 25 µM; in data set [5] it was 25 µM; in data set [6], greater than 25 µM; in data set [8], greater than 25 µM; in data set [7] it was greater than 25 µM. In addition, the “potency in the Thp1 monocytic ATP assay (in words)” value in data set [1] is listed as “excellent potency”. Besides, the hepatocyte CLint at 1 μM in data set [3] amounted to 12.1 µL/min/1e6 cells. Further, the half-life at 1 μM in data set [3] amounted to 1.87 h.
Take `C[C@]1(O)CC[C@H](CS(=O)(=O)c2ccc(-c3ccc(Cl)cc3Cl)cc2)CC1` [CHMSA-11-B, trans-4-(((2′,4′-Dichloro-[1,1′-biphenyl]-4-yl)sulfonyl)methyl)-1-methylcyclohexan-1-ol]: in data set [1] (Homo sapiens, THP-1, 24 h), the IC50 came to 0.8 µM. In data set [3], the hepatocyte CLint at 1 μM was determined as 13.3 µL/min/1e6 cells and the half-life at 1 μM came out at 1.66 h.
In the same order, the values of `C[C@]1(O)CC[C@H](CS(=O)(=O)c2ccc(-c3ncc(F)cc3F)cc2C(F)(F)F)CC1` [CHMSA-09-B, trans-4-(((4-(3,5-Difluoropyridin-2-yl)-2-(trifluoromethyl)phenyl)sulfonyl)methyl)-1-methylcyclohexan-1-ol] are 0.5 µM, 52.9 µL/min/1e6 cells and 0.417 h.
`C[C@]1(O)CC[C@@H](CS(=O)(=O)c2ccc(-c3ccc(F)cc3F)cc2C(F)(F)F)CC1` [CHMSA-08-A, cis-4-(((2′,4′-difluoro-3-(trifluoromethyl)-[1,1′-biphenyl]-4-yl)sulfonyl)methyl)-1-methylcyclohexan-1-ol] had an IC50 in data set [1] (Homo sapiens, THP-1, 24 h) of 0.2 µM. In addition, the “potency in the Thp1 monocytic ATP assay (in words)” value in data set [1] was “excellent potency”. In data set [3], the hepatocyte CLint at 1 μM was 18 µL/min/1e6 cells and the half-life at 1 μM amounted to 1.22 h.
Take `C[C@]1(O)CC[C@@H](CS(=O)(=O)c2ccc(-c3ccc(Cl)cc3Cl)cc2)CC1` [CHMSA-11-A, cis-4-(((2′,4′-dichloro-[1,1′-biphenyl]-4-yl)sulfonyl)methyl)-1-methylcyclohexan-1-ol]: the half-inhibitory concentration (IC50) in data set [1] (Homo sapiens, THP-1, 24 h) is 0.5 µM; in data set [4], greater than 10 µM; in data set [5], 25 µM; in data set [6], greater than 10 µM; in data set [7], greater than 10 µM. Further, in data set [3], the hepatocyte CLint at 1 μM was found to be 7.8 µL/min/1e6 cells. Further, in data set [3], the half-life at 1 μM was determined as 2.87 h.
Turning to `O=S(=O)(N[C@H]1CC[C@H](O)CC1)c1ccc(-c2ccc(F)cc2F)cc1` [ABD599, reference compound], in data set [3], the hepatocyte CLint at 1 μM amounted to 22 µL/min/1e6 cells and the half-life at 1 μM is 1.87 h.
In turn, `C[C@]1(O)CC[C@H](CS(=O)(=O)c2ccc(-c3ccc(C#N)cc3)c(Cl)c2)CC1` [CHMSA-07-B, 2′-Chloro-4′-(((trans-4-hydroxy-4-methylcyclohexyl)methyl)sulfonyl)-[1,1′-biphenyl]-4-carbonitrile] yielded an IC50 in data set [1] (Homo sapiens, THP-1, 24 h) of 2.5 µM.
The compound `C[C@]1(O)CC[C@H](CS(=O)(=O)c2ccc(-c3ccc(F)cc3F)c(C#N)c2)CC1` [CHMSA-06-B, 2′,4′-Difluoro-4-(((trans-4-hydroxy-4-methylcyclohexyl)methyl)sulfonyl)-[1,1′-biphenyl]-2-carbonitrile] gave an IC50 in data set [1] (Homo sapiens, THP-1, 24 h) of 4.5 µM.
As for `C[C@]1(O)CC[C@H](NS(=O)(=O)c2ccc(-c3ccc(F)cc3F)cc2)CC1` [ABD900, reference compound], the IC50 in data set [1] stood at 1.1 µM. In data set [2], the hepatocyte CLint at 1 μM came out at 79 µL/min/1e6 cells and the half-life at 1 μM was found to be 0.298 h. Besides, in data set [3], the hepatocyte CLint at 1 μM was 6.3 µL/min/1e6 cells and the half-life at 1 μM was found to be 3.67 h.
As to `C[C@]1(O)CC[C@H](CS(=O)(=O)c2ccc(-c3ccc(C#N)cc3F)cc2)CC1` [CHMSA-01-B, 2-Fluoro-4′-(((trans-4-hydroxy-4-methylcyclohexyl)methyl)sulfonyl)-[1,1′-biphenyl]-4-carbonitrile], the midpoint of inhibition in data set [1] (Homo sapiens, THP-1, 24 h), the IC50, lay at 4.4 µM. In addition, in data set [3], the hepatocyte CLint at 1 μM was found to be 4.5 µL/min/1e6 cells and the half-life at 1 μM stood at 4.95 h.
Compound `C[C@]1(O)CC[C@@H](CS(=O)(=O)c2ccc(-c3ccc(F)cc3F)c(C#N)c2)CC1` [CHMSA-06-A, 2′,4′-difluoro-4-(((cis-4-hydroxy-4-methylcyclohexyl)methyl)sulfonyl)-[1,1′-biphenyl]-2-carbonitrile] showed an IC50 in data set [1] (Homo sapiens, THP-1, 24 h) of 1.8 µM.
